Measured values taken from ChEMBL document CHEMBL4627246, “Pyroglutamide-Based P2X7 Receptor Antagonists Targeting Inflammatory Bowel Disease” (J Med Chem, 2020).

These molecules were tested on SW-620 (assay: Cytotoxicity against human SW620 cells assessed as effect on cell growth at 10 uM incubated for 48 hrs by sulforhodamine B assay). Settings: sw-620, 48 h.
Assay type: cell-based
In the case of O=C(NCCc1ccc(Cl)cc1Cl)[C@@H]1CCC(=O)N1c1ccccc1, the Activity was “Non-Toxic”.
With COc1cc(CNC(=O)[C@@H]2CCC(=O)N2)cc(OC)c1OC the Activity was “Non-Toxic”.
For COc1ccc(CN2C(=O)CC[C@H]2C(=O)NCCc2ccccc2)cc1, the Activity was “Non-Toxic”.

These molecules were tested on DU-145 (assay: Cytotoxicity against human DU145 cells assessed as effect on cell growth at 10 uM incubated for 48 hrs by sulforhodamine B assay). Settings: du-145, 48 h.
Assay type: cell-based
O=C(NCCc1ccc(Cl)cc1Cl)[C@@H]1CCC(=O)N1c1ccccc1 was tested, and the Activity was “Non-Toxic”.
COc1cc(CNC(=O)[C@@H]2CCC(=O)N2)cc(OC)c1OC was tested, and the Activity was “Non-Toxic”.
In the case of COc1ccc(CN2C(=O)CC[C@H]2C(=O)NCCc2ccccc2)cc1, the Activity was “Non-Toxic”.

These molecules were tested on A549 (assay: Cytotoxicity against human A549/ATCC cells assessed as effect on cell growth at 10 uM incubated for 48 hrs by sulforhodamine B assay). Settings: a549, 48 h.
Assay type: cell-based
In the case of O=C(NCCc1ccc(Cl)cc1Cl)[C@@H]1CCC(=O)N1c1ccccc1, the Activity was “Non-Toxic”.
For COc1cc(CNC(=O)[C@@H]2CCC(=O)N2)cc(OC)c1OC, the Activity was “Non-Toxic”.
COc1ccc(CN2C(=O)CC[C@H]2C(=O)NCCc2ccccc2)cc1 was tested, and the Activity was “Non-Toxic”.

The molecules below were run on 786-0 (assay: Cytotoxicity against human 786-0 cells assessed as effect on cell growth at 10 uM incubated for 48 hrs by sulforhodamine B assay). Settings: 786-0, 48 h.
Assay type: cell-based
For O=C(NCCc1ccc(Cl)cc1Cl)[C@@H]1CCC(=O)N1c1ccccc1, the Activity was “Non-Toxic”.
For COc1cc(CNC(=O)[C@@H]2CCC(=O)N2)cc(OC)c1OC, the Activity was “Non-Toxic”.
With COc1ccc(CN2C(=O)CC[C@H]2C(=O)NCCc2ccccc2)cc1 the Activity was “Non-Toxic”.

These molecules were tested on EKVX (assay: Cytotoxicity against human EKVX cells assessed as effect on cell growth at 10 uM incubated for 48 hrs by sulforhodamine B assay). Settings: not given.
Assay type: cell-based
In the case of O=C(NCCc1ccc(Cl)cc1Cl)[C@@H]1CCC(=O)N1c1ccccc1, the Activity was “Non-Toxic”.
With COc1cc(CNC(=O)[C@@H]2CCC(=O)N2)cc(OC)c1OC the Activity was “Non-Toxic”.
With COc1ccc(CN2C(=O)CC[C@H]2C(=O)NCCc2ccccc2)cc1 the Activity was “Non-Toxic”.

What follows are molecules tested on SR (assay: Cytotoxicity against human SR cells assessed as effect on cell growth at 10 uM incubated for 48 hrs by sulforhodamine B assay). Settings: not given.
Assay type: cell-based
With O=C(NCCc1ccc(Cl)cc1Cl)[C@@H]1CCC(=O)N1c1ccccc1 the Activity was “Non-Toxic”.
COc1cc(CNC(=O)[C@@H]2CCC(=O)N2)cc(OC)c1OC was tested, and the Activity was “Non-Toxic”.
COc1ccc(CN2C(=O)CC[C@H]2C(=O)NCCc2ccccc2)cc1 was tested, and the Activity was “Non-Toxic”.

Each molecule was assayed on OVCAR-5 (assay: Cytotoxicity against human OVCAR5 cells assessed as effect on cell growth at 10 uM incubated for 48 hrs by sulforhodamine B assay). Settings: ovcar-5, 48 h.
Assay type: cell-based
For O=C(NCCc1ccc(Cl)cc1Cl)[C@@H]1CCC(=O)N1c1ccccc1, the Activity was “Non-Toxic”.
For COc1cc(CNC(=O)[C@@H]2CCC(=O)N2)cc(OC)c1OC, the Activity was “Non-Toxic”.
With COc1ccc(CN2C(=O)CC[C@H]2C(=O)NCCc2ccccc2)cc1 the Activity was “Non-Toxic”.

The molecules below were run on UO-31 (assay: Cytotoxicity against human UO31 cells assessed as effect on cell growth at 10 uM incubated for 48 hrs by sulforhodamine B assay). Settings: uo-31, 48 h.
Assay type: cell-based
O=C(NCCc1ccc(Cl)cc1Cl)[C@@H]1CCC(=O)N1c1ccccc1 was tested, and the Activity was “Non-Toxic”.
In the case of COc1cc(CNC(=O)[C@@H]2CCC(=O)N2)cc(OC)c1OC, the Activity was “Non-Toxic”.
COc1ccc(CN2C(=O)CC[C@H]2C(=O)NCCc2ccccc2)cc1 was tested, and the Activity was “Non-Toxic”.

These molecules were tested on ACHN (assay: Cytotoxicity against human ACHN cells assessed as effect on cell growth at 10 uM incubated for 48 hrs by sulforhodamine B assay). Settings: not given.
Assay type: cell-based
O=C(NCCc1ccc(Cl)cc1Cl)[C@@H]1CCC(=O)N1c1ccccc1 was tested, and the Activity was “Non-Toxic”.
With COc1cc(CNC(=O)[C@@H]2CCC(=O)N2)cc(OC)c1OC the Activity was “Non-Toxic”.
COc1ccc(CN2C(=O)CC[C@H]2C(=O)NCCc2ccccc2)cc1 was tested, and the Activity was “Non-Toxic”.

Each molecule was assayed on SK-OV-3 (assay: Cytotoxicity against human SKOV3 cells assessed as effect on cell growth at 10 uM incubated for 48 hrs by sulforhodamine B assay). Settings: sk-ov-3, 48 h.
Assay type: cell-based
O=C(NCCc1ccc(Cl)cc1Cl)[C@@H]1CCC(=O)N1c1ccccc1 was tested, and the Activity was “Non-Toxic”.
With COc1cc(CNC(=O)[C@@H]2CCC(=O)N2)cc(OC)c1OC the Activity was “Non-Toxic”.
For COc1ccc(CN2C(=O)CC[C@H]2C(=O)NCCc2ccccc2)cc1, the Activity was “Non-Toxic”.

The molecules below were run on M14 (assay: Cytotoxicity against human M14 cells assessed as effect on cell growth at 10 uM incubated for 48 hrs by sulforhodamine B assay). Settings: m14, 48 h.
Assay type: cell-based
O=C(NCCc1ccc(Cl)cc1Cl)[C@@H]1CCC(=O)N1c1ccccc1 was tested, and the Activity was “Non-Toxic”.
With COc1cc(CNC(=O)[C@@H]2CCC(=O)N2)cc(OC)c1OC the Activity was “Non-Toxic”.
With COc1ccc(CN2C(=O)CC[C@H]2C(=O)NCCc2ccccc2)cc1 the Activity was “Non-Toxic”.

These molecules were tested on SF-295 (assay: Cytotoxicity against human SF295 cells assessed as effect on cell growth at 10 uM incubated for 48 hrs by sulforhodamine B assay). Settings: sf-295, 48 h.
Assay type: cell-based
O=C(NCCc1ccc(Cl)cc1Cl)[C@@H]1CCC(=O)N1c1ccccc1 was tested, and the Activity was “Non-Toxic”.
With COc1cc(CNC(=O)[C@@H]2CCC(=O)N2)cc(OC)c1OC the Activity was “Non-Toxic”.
For COc1ccc(CN2C(=O)CC[C@H]2C(=O)NCCc2ccccc2)cc1, the Activity was “Non-Toxic”.

Each molecule was assayed on RPMI-8226 (assay: Cytotoxicity against human RPMI8226 cells assessed as effect on cell growth at 10 uM incubated for 48 hrs by sulforhodamine B assay). Settings: rpmi-8226, 48 h.
Assay type: cell-based
With O=C(NCCc1ccc(Cl)cc1Cl)[C@@H]1CCC(=O)N1c1ccccc1 the Activity was “Non-Toxic”.
With COc1cc(CNC(=O)[C@@H]2CCC(=O)N2)cc(OC)c1OC the Activity was “Non-Toxic”.
In the case of COc1ccc(CN2C(=O)CC[C@H]2C(=O)NCCc2ccccc2)cc1, the Activity was “Non-Toxic”.

What follows are molecules tested on HL-60(TB) (assay: Cytotoxicity against human HL-60(TB) cells assessed as effect on cell growth at 10 uM incubated for 48 hrs by sulforhodamine B assay). Settings: not given.
Assay type: cell-based
O=C(NCCc1ccc(Cl)cc1Cl)[C@@H]1CCC(=O)N1c1ccccc1 was tested, and the Activity was “Non-Toxic”.
With COc1cc(CNC(=O)[C@@H]2CCC(=O)N2)cc(OC)c1OC the Activity was “Non-Toxic”.
In the case of COc1ccc(CN2C(=O)CC[C@H]2C(=O)NCCc2ccccc2)cc1, the Activity was “Non-Toxic”.

These molecules were tested on A498 (assay: Cytotoxicity against human A498 cells assessed as effect on cell growth at 10 uM incubated for 48 hrs by sulforhodamine B assay). Settings: a498, 48 h.
Assay type: cell-based
In the case of O=C(NCCc1ccc(Cl)cc1Cl)[C@@H]1CCC(=O)N1c1ccccc1, the Activity was “Non-Toxic”.
In the case of COc1cc(CNC(=O)[C@@H]2CCC(=O)N2)cc(OC)c1OC, the Activity was “Non-Toxic”.
For COc1ccc(CN2C(=O)CC[C@H]2C(=O)NCCc2ccccc2)cc1, the Activity was “Non-Toxic”.

These molecules were tested on NCI-H460 (assay: Cytotoxicity against human NCI-H460 cells assessed as effect on cell growth at 10 uM incubated for 48 hrs by sulforhodamine B assay). Settings: nci-h460, 48 h.
Assay type: cell-based
In the case of O=C(NCCc1ccc(Cl)cc1Cl)[C@@H]1CCC(=O)N1c1ccccc1, the Activity was “Non-Toxic”.
With COc1cc(CNC(=O)[C@@H]2CCC(=O)N2)cc(OC)c1OC the Activity was “Non-Toxic”.
For COc1ccc(CN2C(=O)CC[C@H]2C(=O)NCCc2ccccc2)cc1, the Activity was “Non-Toxic”.

The molecules below were run on HCT-15 (assay: Cytotoxicity against human HCT15 cells assessed as effect on cell growth at 10 uM incubated for 48 hrs by sulforhodamine B assay). Settings: hct-15, 48 h.
Assay type: cell-based
For O=C(NCCc1ccc(Cl)cc1Cl)[C@@H]1CCC(=O)N1c1ccccc1, the Activity was “Non-Toxic”.
COc1cc(CNC(=O)[C@@H]2CCC(=O)N2)cc(OC)c1OC was tested, and the Activity was “Non-Toxic”.
In the case of COc1ccc(CN2C(=O)CC[C@H]2C(=O)NCCc2ccccc2)cc1, the Activity was “Non-Toxic”.

Each molecule was assayed on KM12 (assay: Cytotoxicity against human KM12 cells assessed as effect on cell growth at 10 uM incubated for 48 hrs by sulforhodamine B assay). Settings: km12, 48 h.
Assay type: cell-based
With O=C(NCCc1ccc(Cl)cc1Cl)[C@@H]1CCC(=O)N1c1ccccc1 the Activity was “Non-Toxic”.
With COc1cc(CNC(=O)[C@@H]2CCC(=O)N2)cc(OC)c1OC the Activity was “Non-Toxic”.
With COc1ccc(CN2C(=O)CC[C@H]2C(=O)NCCc2ccccc2)cc1 the Activity was “Non-Toxic”.

Each molecule was assayed on MOLT-4 (assay: Cytotoxicity against human MOLT4 cells assessed as effect on cell growth at 10 uM incubated for 48 hrs by sulforhodamine B assay). Settings: molt-4, 48 h.
Assay type: cell-based
In the case of O=C(NCCc1ccc(Cl)cc1Cl)[C@@H]1CCC(=O)N1c1ccccc1, the Activity was “Non-Toxic”.
For COc1cc(CNC(=O)[C@@H]2CCC(=O)N2)cc(OC)c1OC, the Activity was “Non-Toxic”.
With COc1ccc(CN2C(=O)CC[C@H]2C(=O)NCCc2ccccc2)cc1 the Activity was “Non-Toxic”.

What follows are molecules tested on SF-539 (assay: Cytotoxicity against human SF539 cells assessed as effect on cell growth at 10 uM incubated for 48 hrs by sulforhodamine B assay). Settings: sf-539, 48 h.
Assay type: cell-based
With O=C(NCCc1ccc(Cl)cc1Cl)[C@@H]1CCC(=O)N1c1ccccc1 the Activity was “Non-Toxic”.
For COc1cc(CNC(=O)[C@@H]2CCC(=O)N2)cc(OC)c1OC, the Activity was “Non-Toxic”.
With COc1ccc(CN2C(=O)CC[C@H]2C(=O)NCCc2ccccc2)cc1 the Activity was “Non-Toxic”.
